Values joined by “and” are separate entries in the source; they are usually repeats but may differ in a detail not shown here. Equal values may be shown once.
Experiments:
presbyopia patients [1] = experiment: Non-randomized clinical case study of Huperzine A eye drops: uncorrected near visual acuity (UNVA40, UNVA66) before and 30 minutes after; format: in vivo, human
Experimental: (§1) A non-randomized clinical case study involving 40 eyes of 20 presbyopia patients with uncorrected distance visual acuity (UDVA) of 0.4-1.0 and uncorrected near visual acuity (UNVA) of less than Jaeger1, aged 33-70 years is conducted. The patients are randomly divided into 3 groups, using eye drops with concentration of Huperzine A ranging from 0.1%-0.3% for clinical trials. Data are collected on changes in visual acuity, including UDVA, UNVA40, UNVA66, pupil diameter changes, and non-contact intraocular pressure, before and 30 minutes after Huperzine A eye drops. The data are grouped according to drug concentration and age and are analyzed. The discomfort symptoms appeared half an hour after using the eye drops are recorded, and the time when the relevant symptoms disappeared is obtained during the telephone interview in the following 3 days. A detailed description of the case study is further illustrated below.
The clinical study of the present invention is conducted in March 2022 at a university hospital. Individuals over the age of 30 who feel their near vision has decreased are recruited and voluntarily participate in the test through a long-term open recruitment process. Inclusion criteria include best corrected distance visual acuity of 1.0, 40 cm reading visual acuity (UNVA40) or 66 cm computer visual acuity (UNVA66) lower than the Jaeger score J1, normal intraocular pressure, no history of retinal-related medical conditions, good general health, absence of systemic symptoms, and no rheumatic or systemic immune diseases.
Participants first complete a health declaration questionnaire with assistance from medical staff. They then measure their blood pressure and heart rate before undergoing computer optometry, as well as examinations for best corrected distance visual acuity and uncorrected distance visual acuity. They use the Jaeger score table to assess uncorrected reading visual acuity at 40 cm (UNVA40) and 66 cm (UNVA66) for computer visual acuity. Additionally, they have non-contact intraocular pressure measurements, pupil diameter assessments under room lighting, and a slit lamp examination by an experienced clinical ophthalmologist to rule out ocular diseases. Fundus photography is also performed.
Participants who meet the screening criteria are randomly divided into […]. One drop of 0.1%-0.3% Huperzine A eye drops is administered in each eye. After 30 minutes, the best corrected distance visual acuity, uncorrected distance visual acuity at 40 cm (UNVA40), and 66 cm computer visual acuity (UNVA66) are measured again, along with non-contact intraocular pressure and pupil diameter under room lighting.
The drug used in this present test is Huperzine A at a range of 0.1%-0.3% concentration, using standard ophthalmic dropper bottles, each yielding 40 μL drops and each drop effectively dispenses 0.1%-0.3%.
The collected data are organized so that J1+ is recorded as 0 on the Jaeger scale, J1 as 1, J2 as 2, and so forth.
The patients are grouped by age: 40 years old or below (2 people, 4 eyes), 41-50 years old (9 people, 18 eyes), 51-60 years old (6 people, 12 eyes), 61-70 years old (2 people, 4 eyes), and over 70 years old (1 people, 2 eyes).

[2] = tested on: patients with astigmatism (UDVA less than 0.8); experiment: Uncorrected distance visual acuity (UDVA) of eyes with astigmatism after Huperzine A eye drops; format: in vivo, human; settings: 2 patients, 4 eyes with astigmatism
Experimental: as §1
Participants first complete a health declaration questionnaire with assistance from medical staff. They then measure their blood pressure and heart rate before undergoing computer optometry, as well as examinations for best corrected distance visual acuity and uncorrected distance visual acuity. They use the Jaeger score table to assess uncorrected reading visual acuity at 40 cm (UNVA40) and 66 cm (UNVA66) for computer visual acuity. […]

presbyopia patients [3] = experiment: Side effects reported by patients after Huperzine A eye drops; settings: human, in vivo
Experimental: as §1
The duration of these side effects varies from 2 to 5 hours and gradually relieves over time. Additionally, some patients report an increase in tear secretion after using the eye drops.

presbyopia patients [4] = experiment: Visual acuity before and after treatment with Huperzine A, TRAC1 and their combination (three patients); format: in vivo, human; parameters: scale not given here
Experimental: This hypothesis is tested by using 0.05%-0.3% Huperzine A and 0.05%-0.3% TRAC1. Three patients are treated with each drug, as well as the combination of both drugs.

[5] = Group 1, 40 years old or below, 2 people 4 eyes
[6] = Group 2, 41-50 years old, 9 people 18 eyes
[7] = Group 3, 51-60 years old, 6 people 12 eyes
[8] = Group 4, 61-70 years old, 2 people 4 eyes
[9] = Group 5, over 70 years old, 1 person 2 eyes
[10] = all patients, 20 patients 40 eyes, 0.1%-0.3% eye drops, 30 minutes after
[11] = Patient 1, Right eye (OD), Jaeger score, 0.05%-0.3%

SMILES: C/C=C1\[C@H]2C=C(C)C[C@]1(N)c1ccc(=O)[nH]c1C2 [Huperzine A]
- N40 improved (presbyopia patients [1]; [5]): 2.25 J
- N66 improved (presbyopia patients [1]; [5]): 1.50 J
- UNVA40 after treatment (Near 40, After) (presbyopia patients [1]; [5]): 1.00 J
- UNVA66 after treatment (Near 66, After) (presbyopia patients [1]; [5]): 2.75 J
- N40 improved (presbyopia patients [1]; [6]): 3.05 J and 3.06 J
- N66 improved (presbyopia patients [1]; [6]): 1.72 J
- UNVA40 after treatment (Near 40, After) (presbyopia patients [1]; [6]): 1.89 J
- UNVA66 after treatment (Near 66, After) (presbyopia patients [1]; [6]): 1.61 J
- N40 improved (presbyopia patients [1]; [7]): 1.92 J
- N66 improved (presbyopia patients [1]; [7]): 2.33 J
- UNVA40 after treatment (Near 40, After) (presbyopia patients [1]; [7]): 3.75 J
- UNVA66 after treatment (Near 66, After) (presbyopia patients [1]; [7]): 3.67 J
- N40 improved (presbyopia patients [1]; [8]): 3.75 J
- N66 improved (presbyopia patients [1]; [8]): 2.00 J
- UNVA40 after treatment (Near 40, After) (presbyopia patients [1]; [8]): 2.25 J
- UNVA66 after treatment (Near 66, After) (presbyopia patients [1]; [8]): 3.00 J
- N40 improved (presbyopia patients [1]; [9]): 6.00 J
- N66 improved (presbyopia patients [1]; [9]): 4.50 J
- UNVA40 after treatment (Near 40, After) (presbyopia patients [1]; [9]): 7.00 J
- UNVA66 after treatment (Near 66, After) (presbyopia patients [1]; [9]): 4.00 J
- N40 improved (average improvement of UNVA40) (presbyopia patients [1]; [10]): 2.85 J
- N66 improved (average improvement of UNVA66) (presbyopia patients [1]; [10]): 2.05 J
- UNVA66 after treatment (Near 66, After) (presbyopia patients [1]; all patients, 20 patients 40 eyes, 0.1%-0.3% eye drops, 30 minutes after, Jaeger score): 2.60 J
- UNVA40 after treatment (Near 40, After) (presbyopia patients [1]; all patients, 20 patients 40 eyes, 0.1%-0.3% eye drops, 30 minutes after, Jaeger score, J1+ = 0): 2.65 J
- effect on near vision, 41-50-year-old group compared with 51-60-year-old group (presbyopia patients [1]; human, in vivo): more significant effect on the former group
- UDVA increase after Huperzine A eye drops [2]: 0.2 and 0.1
- lacrimation (side effect) (presbyopia patients [3]): 6%
- Near 40 cm, After treatment (presbyopia patients [4]; Patient 1, Left eye (OS)): 3
- Near 40 cm, Improvement (presbyopia patients [4]; Patient 1, Left eye (OS)): 2
- Near 66 cm, After treatment (presbyopia patients [4]; Patient 1, Left eye (OS)): 2
- Near 66 cm, Improvement (presbyopia patients [4]; Patient 1, Left eye (OS)): 2
- Near 40 cm, Improvement (presbyopia patients [4]; Patient 1, Right eye (OD)): 3
- Near 66 cm, After treatment (presbyopia patients [4]; Patient 1, Right eye (OD)): 2
- Near 66 cm, Improvement (presbyopia patients [4]; Patient 1, Right eye (OD)): 2
- Near 40 cm, After treatment (presbyopia patients [4]; [11]): 3
- Near 40 cm, After treatment (presbyopia patients [4]; Patient 2, Left eye (OS)): 4
- Near 40 cm, Improvement (presbyopia patients [4]; Patient 2, Left eye (OS)): 5
- Near 66 cm, After treatment (presbyopia patients [4]; Patient 2, Left eye (OS)): 2
- Near 66 cm, Improvement (presbyopia patients [4]; Patient 2, Left eye (OS)): 4
- Near 40 cm, After treatment (presbyopia patients [4]; Patient 2, Right eye (OD)): 4
- Near 40 cm, Improvement (presbyopia patients [4]; Patient 2, Right eye (OD)): 6
- Near 66 cm, After treatment (presbyopia patients [4]; Patient 2, Right eye (OD)): 3
- Near 66 cm, Improvement (presbyopia patients [4]; Patient 2, Right eye (OD)): 3
- Near 40 cm, After treatment (presbyopia patients [4]; Patient 3, Left eye (OS)): 3
- Near 40 cm, Improvement (presbyopia patients [4]; Patient 3, Left eye (OS)): 8
- Near 66 cm, After treatment (presbyopia patients [4]; Patient 3, Left eye (OS)): 3
- Near 66 cm, Improvement (presbyopia patients [4]; Patient 3, Left eye (OS)): 6
- Near 40 cm, After treatment (presbyopia patients [4]; Patient 3, Right eye (OD)): 2
- Near 40 cm, Improvement (presbyopia patients [4]; Patient 3, Right eye (OD)): 6
- Near 66 cm, After treatment (presbyopia patients [4]; Patient 3, Right eye (OD)): 2
- Near 66 cm, Improvement (presbyopia patients [4]; Patient 3, Right eye (OD)): 5

SMILES: Nc1c2c(nc3ccccc13)CCCC2 [Tacrine]
- Near 40 cm, After treatment (presbyopia patients [4]; Patient 1, Left eye (OS)): 3
- Near 40 cm, Improvement (presbyopia patients [4]; Patient 1, Left eye (OS)): 2
- Near 66 cm, After treatment (presbyopia patients [4]; Patient 1, Left eye (OS)): 2
- Near 66 cm, Improvement (presbyopia patients [4]; Patient 1, Left eye (OS)): 2
- Near 40 cm, Improvement (presbyopia patients [4]; Patient 1, Right eye (OD)): 3
- Near 66 cm, After treatment (presbyopia patients [4]; Patient 1, Right eye (OD)): 2
- Near 66 cm, Improvement (presbyopia patients [4]; Patient 1, Right eye (OD)): 2
- Near 40 cm, After treatment (presbyopia patients [4]; [11]): 3
- Near 40 cm, After treatment (presbyopia patients [4]; Patient 2, Left eye (OS)): 4
- Near 40 cm, Improvement (presbyopia patients [4]; Patient 2, Left eye (OS)): 5
- Near 66 cm, After treatment (presbyopia patients [4]; Patient 2, Left eye (OS)): 2
- Near 66 cm, Improvement (presbyopia patients [4]; Patient 2, Left eye (OS)): 4
- Near 40 cm, After treatment (presbyopia patients [4]; Patient 2, Right eye (OD)): 4
- Near 40 cm, Improvement (presbyopia patients [4]; Patient 2, Right eye (OD)): 6
- Near 66 cm, After treatment (presbyopia patients [4]; Patient 2, Right eye (OD)): 3
- Near 66 cm, Improvement (presbyopia patients [4]; Patient 2, Right eye (OD)): 3
- Near 40 cm, After treatment (presbyopia patients [4]; Patient 3, Left eye (OS)): 3
- Near 40 cm, Improvement (presbyopia patients [4]; Patient 3, Left eye (OS)): 8
- Near 66 cm, After treatment (presbyopia patients [4]; Patient 3, Left eye (OS)): 3
- Near 66 cm, Improvement (presbyopia patients [4]; Patient 3, Left eye (OS)): 6
- Near 40 cm, After treatment (presbyopia patients [4]; Patient 3, Right eye (OD)): 2
- Near 40 cm, Improvement (presbyopia patients [4]; Patient 3, Right eye (OD)): 6
- Near 66 cm, After treatment (presbyopia patients [4]; Patient 3, Right eye (OD)): 2
- Near 66 cm, Improvement (presbyopia patients [4]; Patient 3, Right eye (OD)): 5

Reference: patent publication US20250288567A1, “PHARMACEUTICAL COMPOSITION FOR TREATING PRESBYOPIA” (Sight Health Hong Kong Biotechnology Co., Limited, priority 2024, published 2025)
